Molecular target: T1, 15-PGDH/HPGD (Homo sapiens, UniProt P15428)
T1 construct: purchased R&D System 5660-DH
T1 sequence (P15428 1-266): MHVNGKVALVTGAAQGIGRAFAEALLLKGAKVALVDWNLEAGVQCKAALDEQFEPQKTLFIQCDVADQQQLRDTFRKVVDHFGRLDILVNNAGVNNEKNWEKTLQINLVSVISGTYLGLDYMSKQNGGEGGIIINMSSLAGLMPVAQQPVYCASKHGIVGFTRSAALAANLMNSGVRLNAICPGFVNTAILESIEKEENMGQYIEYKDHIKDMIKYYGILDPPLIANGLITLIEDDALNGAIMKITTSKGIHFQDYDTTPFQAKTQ
Assay: hPGDH inhibitor screening biochemical assay
Details: 10 nM enzyme, 15 μM PGE2, 0.25 mM NAD, fluorescence ex/em 340/485 nm
Method: A hydroxyprostaglandin dehydrogenase inhibition screening biochemical assay can be performed to assess the synthesized inhibitors provided herein. Provided herein is an exemplary biochemical assay for hPGDH inhibitor screening.
The in vitro biochemical assay can be performed in white, 384 plates in total 20 μl reaction volume consisting of 10 nM of 15-PGDH/HPGD (R&D System #5660-DH), 15 μM Prostaglandin E2 (Sigma, C8 t #P5640-10 MG) and 0.25 mM β-Nicotinamide adenine dinucleotide sodium salt (Sigma, C8 t #N0632-5G) made in reaction buffer (50 mM Tris-HCl, pH 7.5, 0.01% Tween 20) at 10-point dose response curve for test/tool compounds. Briefly, 5 μl (4×) of compounds solution and 5 μl (final concentration, 10 nM) of enzyme solution is added to white 384 well plates and incubated for 10 mins at 37° C. 5 μl (4×) of […] and 5 μl (4×) of β-Nicotinamide adenine dinucleotide sodium salt is added to the wells and incubated for 10 mins at room temperature. Fluorescence is recorded at ex/em=340 nm/485 nm. The percentage (%) inhibition of enzyme activity was determined relative to positive control (1% DMSO) and IC50 was calculated using GraphPad prism software (four parameter-variable slope equation).

For `CC1CCCN(C(=O)c2cnc3c(ccn3-c3ccc(C#N)cc3)c2)C1` (stereo in doubt) [Compound B-10, (R)-4-(5-(3-methylpiperidine-1-carbonyl)-1H-pyrrolo[2,3-b1 pyridin-1-yl)benzonitrile], the IC50 was less than 100 nM.

Molecule `CCC1CCCN(C(=O)c2cnc3c(ccn3-c3cncc(NC(=O)OC)c3)c2)C1` (stereo in doubt) [Compound B-69, methyl(R)-(5-(5-(3-ethylpiperidine-1-carbonyl)-1H-pyrrolo[2,3-b]pyridin-1-yl)pyridin-3-yl)carbamate] has an IC50 of less than 100 nM.

Work on `O=C(c1cnc2c(ccn2-c2cncc(-c3n[nH]c(C4CC4)n3)c2)c1)N1CCC(F)(F)CC1` [Compound B-1, (1-(5-(5-cyclopropyl-1H-1,2,4-triazol-3-yl)pyridin-3-yl)-1H-pyrrolo [2,3-b]pyridin-5-yl)(4,4-difluoropiperidin-1-yl)methanone] yielded an IC50 of less than 100 nM.

Work on `O=C(c1cnc2c(ccn2-c2ccc(N3CCNC3=O)nc2)c1)N1CCC(F)(F)CC1` [Compound B-2] yielded an IC50 of less than 100 nM.

With `C[C@@H]1CCCN(C(=O)c2cnc3c(ccn3-c3ccc(C(=O)O)cc3)c2)C1` [Compound B-3] the IC50 was less than 100 nM.

`C[C@H]1CCCN(C(=O)c2cnc3c(ccn3-c3ccc(C(=O)O)cc3)c2)C1` [Compound B-4] was tested, and the IC50 was less than 100 nM.

Work on `C[C@@H]1CCN(C(=O)c2cnc3c(ccn3-c3ccc(C(=O)O)cc3)c2)C1` [Compound B-5] yielded an IC50 of less than 100 nM.

With `O=C(O)c1ccc(-n2ccc3cc(C(=O)N4CC[C@@H](F)C4)cnc32)cc1` [Compound B-6] the IC50 was less than 100 nM.

With `C[C@H]1CCN(C(=O)c2cnc3c(ccn3-c3ccc(C(=O)O)cc3)c2)C1` [Compound B-7] the IC50 was less than 100 nM.

`O=C(O)c1ccc(-n2ccc3cc(C(=O)N4CC[C@H](F)C4)cnc32)cc1` [Compound B-8] was tested, and the IC50 was less than 100 nM.

`C[C@@H]1CCCN(C(=O)c2cnc3c(ccn3-c3ccc(C#N)cc3)c2)C1` [Compound B-9, (R)-4-(5-(3-methylpiperidine-1-carbonyl)-1H-pyrrolo12,3-b1 pyridin-1-yl)benzonitrile] was tested, and the IC50 was less than 100 nM.

In the case of `Nc1nc(-c2cncc(-n3ccc4cc(C(=O)N5CCC(F)(F)CC5)cnc43)c2)no1` [Compound B-11, (1-(5-(5-amino-1,2,4-oxadiazol-3-yl)pyridin-3-yl)-1H-pyrrolo [2,3-b]pyridin-5-yl)(4,4-difluoropiperidin-1-yl)methanone], the IC50 is reported as less than 100 nM.

In the case of `Nc1nc2ccc(-n3ccc4cc(C(=O)N5CCC(F)(F)CC5)cnc43)cn2n1` [Compound B-12], the IC50 is reported as less than 100 nM.

`O=C(c1cnc2c(ccn2-c2ccc(N3CCN(c4ccc(-n5ccc6cc(C(=O)N7CCC(F)(F)CC7)cnc65)cn4)C3=O)nc2)c1)N1CCC(F)(F)CC1` [Compound B-13] was tested, and the IC50 was 100 to 1000 nM.

`Cc1cnc(-c2cncc(-n3ccc4cc(C(=O)N5CCC(F)(F)CC5)cnc43)c2)[nH]1` [Compound B-14] showed an IC50 of less than 100 nM.

In the case of `Cc1nc(-c2cncc(-n3ccc4cc(C(=O)N5CCC(F)(F)CC5)cnc43)c2)c[nH]1` [Compound B-15], the IC50 is reported as less than 100 nM.

`Cc1nc(-c2ccc(-n3ccc4cc(C(=O)N5CCC(F)(F)CC5)cnc43)cn2)c[nH]1` [Compound B-16, (4,4-difluoropiperidin-1-yl)(1-(6-(2-methyl-1H-imidazol-4-yl)pyridin-3-yl)-1H-pyrrolo[2,3-b]pyridin-5-yl)methanone] was tested, and the IC50 was less than 100 nM.

With `Cc1cnc(-c2ccc(-n3ccc4cc(C(=O)N5CCC(F)(F)CC5)cnc43)cn2)[nH]1` [Compound B-17] the IC50 was less than 100 nM.

With `Cc1nn[nH]c1-c1cncc(-n2ccc3cc(C(=O)N4CCC(F)(F)CC4)cnc32)c1` [Compound B-18, (4,4-difluoropiperidin-1-yl) (1-(5-(4-methyl-1H-1,2,3-triazol-5-yl)pyridin-3-yl)-1H-pyrrolo[2,3-b]pyridin-5-yl)methanone] the IC50 was less than 100 nM.

Work on `Cc1[nH]nnc1-c1ccc(-n2ccc3cc(C(=O)N4CCC(F)(F)CC4)cnc32)cn1` [Compound B-19, (4,4-difluoropiperidin-1-yl)(1-(6-(5-methyl-1H-1,2,3-triazol-4-yl)pyridin-3-yl)-1H-pyrrolo[2,3-b]pyridin-5-yl)methanone] yielded an IC50 of less than 100 nM.

`CC(C)(C)Nc1nc(-c2cncc(-n3ccc4cc(C(=O)N5CCC(F)(F)CC5)cnc43)c2)no1` [Compound B-20, (1-(5-(5-(tert-butylamino)-1,2,4-oxadiazol-3-yl)pyridin-3-yl)-1H-pyrrolo[2,3-b]pyridin-5-yl)(4,4-difluoropiperidin-1-yl)methanone] showed an IC50 of less than 100 nM.

For `Cc1nnc(-c2ccc(-n3ccc4cc(C(=O)N5CCC(F)(F)CC5)cnc43)cn2)[nH]1` [Compound B-21, (4,4-difluoropiperidin-1-yl)(1-(6-(5-methyl-4H-1,2,4-triazol-3-yl)pyridin-3-yl)-1H-pyrrolo[2,3-b]pyridin-5-yl)methanone], the IC50 was less than 100 nM.

Molecule `Cc1nnc(-c2cncc(-n3ccc4cc(C(=O)N5CCC(F)(F)CC5)cnc43)c2)[nH]1` [Compound B-22, (4,4-difluoropiperidin-1-yl) (1-(5-(5-methyl-4H-1,2,4-triazol-3-yl)pyridin-3-yl)-1H-pyrrolo[2,3-b]pyridine-5-yl) methanone] has an IC50 of less than 100 nM.

In the case of `COc1ccc(Cn2cc(-c3cncc(-n4ccc5cc(C(=O)N6CCC(F)(F)CC6)cnc54)c3)nc2C)cc1` [Compound B-23, (4,4-difluoropiperidin-1-yl)(1-(5-(1-(4-methoxybenzyl)-2-methyl-1H-imidazol-4-yl)pyridin-3-yl)-1H-pyrrolo [2,3-b]pyridin-5-yl)methanone], the IC50 is reported as less than 100 nM.

`COc1ccc(Cn2cc(-c3ccc(-n4ccc5cc(C(=O)N6CCC(F)(F)CC6)cnc54)cn3)nc2C)cc1` [Compound B-24, (4,4-difluoropiperidin-1-yl) (1-(6-(1-(4-methozybenzyl)-2-methyl-1H-imidazol-4-yl)pyridin-3-yl)-1H-pyrrolo[2,3-b]pyridin-5-yl)methanone] showed an IC50 of less than 100 nM.

Work on `O=C(c1cnc2c(ccn2-c2ccc(-c3nnc[nH]3)cc2)c1)N1CCC(F)(F)CC1` [Compound B-26, (1-(4-(1H-1,2,4-triazol-5-yl)phenyl)-1H-pyrrolo[2,3-b]pyridin-5-yl)(4,4-difluoropiperidin-1-yl)methanone] yielded an IC50 of less than 100 nM.

With `O=C(O)c1ccc(-n2ccc3cc(C(=O)N4CCC(F)(F)CC4)cnc32)cc1F` [Compound B-27, 4-(5-(4,4-difluoropiperidine-1-carbonyl)-1H-pyrrolo[2,3-b]pyridin-1-yl)-2-fluorobenzoic acid] the IC50 was less than 100 nM.

In the case of `C[C@H]1CCCN(C(=O)c2cnc3c(ccn3-c3ccc(-c4nnc[nH]4)nc3)c2)C1` [Compound B-28], the IC50 is reported as less than 100 nM.

`C[C@H]1CCCN(C(=O)c2cnc3c(ccn3-c3ccc4nc(N)nn4c3)c2)C1` [Compound B-29] was tested, and the IC50 was less than 100 nM.

`C[C@H]1CCCN(C(=O)c2cnc3c(ccn3-c3ccc(N4CCNC4=O)nc3)c2)C1` [Compound B-30] gave an IC50 of less than 100 nM.

`C[C@H]1CCCN(C(=O)c2cnc3c(ccn3-c3ccc(-c4nc[nH]n4)cc3)c2)C1` [Compound B-33, (S)-(1-(4-(1H-1,2,4-triazol-3-yl)phenyl)-1H-pyrrolo[2,3-b]pyridin-5-yl)(3-methylpiperidin-1-yl)methanone] gave an IC50 of less than 100 nM.

`O=C(c1cnc2c(ccn2-c2ccc(-c3nc[nH]n3)cn2)c1)N1CCC(F)(F)CC1` [Compound B-34, (1-(5-(1H-1,2,4-triazol-3-yl)pyridin-2-yl)-1H-pyrrolo[2,3-b]pyridin-5-yl)(4,4-difluoropiperidin-1-yl)methanone] gave an IC50 of less than 100 nM.

`C[C@H]1CCCN(C(=O)c2cnc3c(ccn3-c3ccc(-c4nc[nH]n4)cn3)c2)C1` [Compound B-35, (S)-(1-(5-(4H-1,2,4-triazol-3-yl)pyridin-2-yl)-1H-pyrrolo[2,3-b]pyridin-5-yl)(3-methylpiperidin-1-yl)methanone] showed an IC50 of less than 100 nM.

In the case of `C[C@H]1CCCN(C(=O)c2cnc3c(ccn3-c3cccc(-c4nc[nH]n4)c3)c2)C1` [Compound B-37, (S)-(1-(3-(1H-1,2,4-triazol-3-yl)phenyl)-1H-pyrrolo[2,3-b]pyridin-5-yl)(3-methylpiperidin-1-yl)methanone], the IC50 is reported as less than 100 nM.

In the case of `O=C(c1cnc2c(ccn2-c2ccc(-c3ncn[nH]3)nc2)c1)N1CCC[C@H](O)C1` [Compound B-39], the IC50 is reported as less than 100 nM.

With `C[C@H]1CCN(C(=O)c2cnc3c(ccn3-c3ccc(-c4ncn[nH]4)nc3)c2)C1` [Compound B-41] the IC50 was less than 100 nM.

`CC1(C)CCN(C(=O)c2cnc3c(ccn3-c3ccc(-c4ncn[nH]4)nc3)c2)C1` [Compound B-42] showed an IC50 of less than 100 nM.

`O=C(c1cnc2c(ccn2-c2ccc(-c3ncn[nH]3)nc2)c1)N1CC[C@H](O)C1` [Compound B-43] was tested, and the IC50 was 100 to 1000 nM.

`CO[C@@H]1CCN(C(=O)c2cnc3c(ccn3-c3ccc(-c4ncn[nH]4)nc3)c2)C1` [Compound B-44] showed an IC50 of less than 100 nM.

In the case of `O=C(c1cnc2c(ccn2-c2cnc(-c3ncn[nH]3)nc2)c1)N1CCC(F)(F)CC1` [Compound B-45, (1-(2-(1H-1,2,4-triazol-5-yl)pyrimidin-5-yl)-1H-pyrrolo[2,3-b]pyridin-5-yl)(4,4-difluoropiperidin-1-yl)methanone], the IC50 is reported as less than 100 nM.

Source: patent US20240294519A1, “PYRROLO[2,3-b]PYRIDINE PGDH INHIBITORS AND METHODS OF MAKING AND USING” (EPIRIUM BIO INC., priority 2021, published 2024)
